Data set [1] in a line: Dose escalation adverse event screen (SHIRPA based). It counts as in vivo. Conditions: highest dose at which no adverse events are observed in dose escalation studies, mice. The text has this:
Novel compounds were screened in vivo using a standard dose escalation screen in mice coupled with clinical observation and testing based on the SHIRPA mouse phenotype assay paradigm. To obtain insight into the potential for off-target activity with the largest known family of small molecule drug targets, G-protein coupled receptors (GPCRs), a cell-based functional screen of the final title compounds was done. The Millipore® GPCR Profiler screen employs the ChemiScreen GPCR stable cell line technology used for real-time calcium flux FLIPR assays on a panel of 158 GPCRs to detect both antagonists and agonists. The NCBI Entrez identifier for each GPCR is provided at the vendor site (www.millipore.com). Follow-up validation of any initial hits as being true positives or negatives was done as described above for protein kinases by testing the concentration dependence of any cellular effects. No validated hits were detected.

In data set [2] the target is casein kinase 1δ (CK1δ), p38βMAPK and other kinases. Conditions: cited from earlier work.
The next data set relates to p38MAPKs. The arrangement: method as in PMID 17079143. Conditions: cited from earlier work.

For the molecule `CCCN(C)c1cc(-c2ccncc2)c(-c2ccccc2)nn1` [MW207], in data set [1], the “Dose Escalating Adverse Event Screen / Adverse Pharm Dose” value is listed as more than 200 mg/kg. Same read-out and setting: then `CN(C)c1cc(-c2ccncc2)c(-c2ccccc2)nn1` [MW105, N, N-dimethyl-6-phenyl-5-(pyridin-4-yl)pyridazin-3-amine], with more than 200 mg/kg. Take `C[S+]([O-])c1ccc(-c2nc(-c3ccncc3)c(-c3ccc(F)cc3)[nH]2)cc1` (centres unmarked) [SB203580]: the “kinase cross-over” value in data set [2] was “inhibit casein kinase 1δ (CK1δ), p38βMAPK and other kinases”.

Consider `CN1CCN(c2cc(-c3ccncc3)c(-c3ccccc3)nn2)CC1` [MW066], for which the “Dose Escalating Adverse Event Screen / Adverse Pharm Dose” value in data set [1] is listed as more than 200 mg/kg. Same read-out and setting: as for `c1ccc(-c2nnc(N3CCN(c4ncccn4)CC3)cc2-c2ccncc2)cc1` [MW069a], the figure is 60 mg/kg.

For the molecule `COc1nccc(-c2c(-c3ccc(F)cc3)ncn2C2CCC(O)CC2)n1` (centres unmarked) [SB239063], in data set [2], the “kinase cross-over” value was “inhibit casein kinase 1δ (CK1δ), p38βMAPK and other kinases”.

For `c1ccc(-c2cc(-c3ccncc3)c(N3CCN(c4ncccn4)CC3)nn2)cc1` [MW01-6-189WH], the “interaction with p38MAPKs” value in the data set on p38MAPKs was “does not interact with p38MAPKs”. On to `CCN(CC)c1cc(-c2ccncc2)c(-c2ccccc2)nn1` [MW177], for which the “Dose Escalating Adverse Event Screen / Adverse Pharm Dose” value in data set [1] is on record as more than 200 mg/kg.

Source of the values: PMC3694096, “Development of Novel In Vivo Chemical Probes to Address CNS Protein Kinase Involvement in Synaptic Dysfunction” (PLoS ONE, 2013).
